From patent publication US9040563B2, “Dual inhibitors of farnesyltransferase and geranylgeranyltransferase I” (H. Lee Moffitt Cancer Center and Research Institute, Inc., priority 2010, dated 2015)

What was measured:
survivin = assay: Western blot of survivin and PARP (apoptosis); format: cell-based; conditions: human cancer cells
Source text: (§1) Mammalian target of rapamycin (mTOR) is a serine/threonine phosphatidylinositol 3-kinase-related kinase responsible for cell growth, proliferation, cell survival, protein synthesis, and transcription. Alteration of the mTOR pathway, either through activation of oncogenes or inactivation of tumor suppressors, disrupts a signaling equilibrium and causes malignant transformation. Studies have shown that phosphorylated S6 (pS6) is related to mTOR pathway alterations, and is useful in determining PI3K-based cancer therapies (Aziz, et al. Phosphatidylinositol-3-Kinase as a Therapeutic Target in Melanoma. Clin Cancer Res. 2009, 15; 3029-3036). Two breast adenocarcinoma and a pancreatic carcinoma cell line were treated with indicated concentrations of FGTI-2734, GGTI-2417 or FTI-2153. Protein extracts were run on a Western Blot using antibody against pS6 (ser240/244) (Cell Signaling Technology, Inc., Danvers, Mass.). […] Antibodies used were HDJ-2 (Lab Vision Corporation, Fremont, Calif.), Rapt (Santa Cruz Biotechnology, Santa Cruz, Calif.), K-Ras (EMD4 Biosciences (Calbiochem), Gibbstown, N.J.), P27 (BD Biosciences, San Jose, Calif.), Actin (Sigma-Aldrich, St. Louis, Mo.), Survivin (Santa Cruz Biotechnology, Santa Cruz, Calif.), and PARP (Roche, Indianapolis, Ind.).

BxPC3 = assay: MTT proliferation/viability assay; format: cell-based, human
Procedure: (§2) To determine if FGTI-2734 is more efficacious than FT or GGT-1 inhibitors, 10 human cancer pancreatic cell lines, 2 human breast cancer cell lines, 2 human lung cancer cell lines and one human prostate cancer cell line were treated with these inhibitors and determined their effects on the proliferation of these cells by MTT assay.

MCF-7 = assay: MTT proliferation/viability assay; format: cell-based, human; conditions: Homo sapiens, MCF7, MCF-7, breast
Procedure: as §2

ASPC-1 = assay: MTT proliferation/viability assay; format: cell-based, human
Procedure: as §2

HPNE-K-ras = assay: MTT proliferation/viability assay; format: cell-based, human; conditions: Homo sapiens, pancreas
Procedure: as §2

DU-145 = assay: MTT proliferation/viability assay; format: cell-based, human; conditions: Homo sapiens, DU-145, DU-145, prostate
Procedure: as §2

Capan-2 = assay: MTT proliferation/viability assay; format: cell-based, human
Procedure: as §2

Panc-1 = assay: MTT proliferation/viability assay; format: cell-based, human; conditions: Homo sapiens, Panc-1, pancreas
Procedure: as §2

HPDE-C7-Kras = assay: MTT proliferation/viability assay; format: cell-based, human; conditions: pancreas
Procedure: as §2

A549 = assay: MTT proliferation/viability assay; format: cell-based, human; conditions: Homo sapiens, A549, lung
Procedure: as §2

MiaPaca = assay: MTT proliferation/viability assay; format: cell-based, human; conditions: Homo sapiens, MIA PaCa-2, pancreas
Procedure: as §2

HPDE-C7 = assay: MTT proliferation/viability assay; format: cell-based, human; conditions: Homo sapiens, HPDE-C7, pancreas
Procedure: as §2

[1] = system: mTOR signaling pathway (pS6); assay: Western blot of pS6 (ser240/244), mTOR pathway signaling; format: cell-based, human; conditions: two breast adenocarcinoma and a pancreatic carcinoma cell line; FIG. 16
Source text: as §1

In the case of `Cn1cncc1CN(CCN(CC1CCCCC1)S(=O)(=O)c1ccccn1)c1ccc(C#N)cc1F` [21b, N-(2-((4-cyano-2-fluorophenyl)((1-methyl-1H-imidazol-5-yl)methyl)amino)ethyl)-N-(cyclohexylmethyl)pyridine-2-sulfonamide], the survivin protein levels (survivin; FIG. 18) is reported as “reduces”, the apoptosis (survivin; FIG. 18 (PARP)) is reported as “induces apoptosis” and the IC50 (BxPC3; BxPC3, pancreas, listed as FGTI-2734) is reported as 17.8 µM. It also gave an IC50 (BxPC3; Homo sapiens, BXPC-3, BxPC3, pancreas) of 17.2 µM, an IC50 (MCF-7) of 4.42 ± 0.92 µM and an IC50 (ASPC-1; ASPC-1, pancreas, listed as FGTI-2734) of 12.6 µM. The IC50 (ASPC-1; Homo sapiens, ASPC1, ASPC-1, pancreas) was 11.2 µM, the IC50 (HPNE-K-ras) was 14.7 ± 0.89 µM and the IC50 (DU-145) was 11.2 ± 6.09 µM. For the same molecule, the IC50 (Capan-2; Capan-2, pancreas, listed as FGTI-2734) was 30 µM, the IC50 (Capan-2; Homo sapiens, Capan-2, Capan-2, pancreas) was 24 µM and the IC50 (Panc-1) was 20.5 ± 3.18 µM. The IC50 (HPDE-C7-Kras; Homo sapiens) was 6.6 µM, the IC50 (HPDE-C7-Kras; listed as FGTI-2734) was 8.7 µM and the IC50 (A549) was 13.2 ± 3.64 µM. The IC50 (MiaPaca) was 2.65 ± 0.3 µM, the IC50 (HPDE-C7) was 7.5 µM and the “mTOR pathway signaling, levels of pS6” value [1] was “reducing the levels of pS6”.
